Tested on: panel of 484 cancer cell lines
Test: PRISM cancer cell line profiling, 5 days
Type: cell-based
Parameters: AUC: unit not given beside the values
Procedure: Cancer cell line profiling was performed using the Broad’s PRISM platform. Cell treatment and data analysis were performed as described in Yu et al[42]. Raw Luminex signal was converted to AUC values for each cell line as described. The resulting AUC profile for each compound was modeled against DepMap using the limma package in R[71]. Because hotspot mutation analysis was performed against DepMap, TP53 annotations in Fig. 6c,d are directly from DepMap.

CN1CCN(CCC(=O)Nc2ccc3c(=O)n(CC4(O)CCN(C(=O)[C@H](CCCNC(=O)c5ccc6c(Cl)c7c(nc6c5)CCCC7)Cc5ccccc5)CC4)cnc3c2)CC1 [XL177B]
AUC (MFE319_ENDOMETRIUM): 1.072
AUC (MG63_BONE): 1.289
AUC (MHHES1_BONE): 1.021
AUC (MIAPACA2_PANCREAS): 1.024
AUC (MKN1_STOMACH): 1.134
AUC (MKN7_STOMACH): 0.9188
AUC (MKN45_STOMACH): 0.937
AUC (MKN74_STOMACH): 1.1384
AUC (MON_SOFT_TISSUE): 0.868
AUC (MPP89_PLEURA): 1.104
AUC (MSTO211H_PLEURA): 1.149
AUC (NB1_AUTONOMIC_GANGLIA): 0.9815
AUC (NCIH23_LUNG): 1.159
AUC (NCIH28_PLEURA): 1.1
AUC (NCIH226_LUNG): 1
AUC (NCIH292_LUNG): 1.194
AUC (NCIH322_LUNG): 1.142
AUC (NCIH358_LUNG): 0.8695
AUC (NCIH446_LUNG): 1.097
AUC (NCIH460_LUNG): 1.182
AUC (NCIH520_LUNG): 1.115
AUC (NCIH522_LUNG): 1.144
AUC (NCIH596_LUNG): 1.0995
AUC (NCIH650_LUNG): 0.9625
AUC (NCIH661_LUNG): 1.097
AUC (NCIH727_LUNG): 0.8802
AUC (NCIH747_LARGE_INTESTINE): 1.192
AUC (NCIH838_LUNG): 1.102
AUC (NCIH841_LUNG): 0.9191
AUC (NCIH1048_LUNG): 1.221
AUC (NCIH1299_LUNG): 1.132
AUC (NCIH1339_LUNG): 1.0827
AUC (NCIH1355_LUNG): 1
AUC (NCIH1373_LUNG): 1
AUC (NCIH1435_LUNG): 1.103
AUC (NCIH1437_LUNG): 1.1299
AUC (NCIH1563_LUNG): 1.106
AUC (NCIH1568_LUNG): 1.0425
AUC (NCIH1573_LUNG): 1.2267
AUC (NCIH1581_LUNG): 1
AUC (NCIH1623_LUNG): 0.9367
AUC (NCIH1648_LUNG): 0.9797
AUC (NCIH1650_LUNG): 1
AUC (NCIH1651_LUNG): 1.093
AUC (NCIH1693_LUNG): 0.9899
AUC (NCIH1703_LUNG): 1.014
AUC (NCIH1792_LUNG): 1.039
AUC (NCIH1793_LUNG): 1.204
AUC (NCIH1838_LUNG): 1.05
AUC (NCIH1915_LUNG): 1.114
AUC (NCIH1944_LUNG): 1.069
AUC (NCIH1975_LUNG): 0.971
AUC (NCIH2009_LUNG): 1.115
AUC (NCIH2023_LUNG): 1.241
AUC (NCIH2030_LUNG): 1.104
AUC (NCIH2052_PLEURA): 1.077
AUC (NCIH2077_LUNG): 1.134
AUC (NCIH2087_LUNG): 1.226
AUC (NCIH2110_LUNG): 1.058
AUC (NCIH2122_LUNG): 0.9408
AUC (NCIH2126_LUNG): 1.236
AUC (NCIH2170_LUNG): 1.101
AUC (NCIH2172_LUNG): 1.092
AUC (NCIH2228_LUNG): 1.118
AUC (NCIH2347_LUNG): 1.188
AUC (NCIH2444_LUNG): 1.192
AUC (NCIH2452_PLEURA): 1.126
AUC (NCIN87_STOMACH): 1.49
AUC (NUGC3_STOMACH): 1.06
AUC (NUGC4_STOMACH): 0.9885
AUC (OAW42_OVARY): 1.241
AUC (OC314_OVARY): 1.074
AUC (OC316_OVARY): 1.04
AUC (OE19_OESOPHAGUS): 1.175
AUC (OE21_OESOPHAGUS): 1.031
AUC (OE33_OESOPHAGUS): 1.151
AUC (ONCODG1_OVARY): 0.9433
AUC (ONS76_CENTRAL_NERVOUS_SYSTEM): 0.9415
AUC (OSRC2_KIDNEY): 0.9859
AUC (OUMS23_LARGE_INTESTINE): 0.9052
AUC (OV56_OVARY): 1.208
AUC (OVCAR8_OVARY): 0.9939
AUC (OVISE_OVARY): 0.9359
AUC (OVK18_OVARY): 1.044
AUC (OVSAHO_OVARY): 1.01
AUC (OVTOKO_OVARY): 1.081
AUC (PANC1_PANCREAS): 0.9949
AUC (PANC0203_PANCREAS): 0.9842
AUC (PANC0327_PANCREAS): 1.28
AUC (PANC0403_PANCREAS): 1.185
AUC (PANC0813_PANCREAS): 1.0849
AUC (PANC1005_PANCREAS): 1.231
AUC (PATU8902_PANCREAS): 1.2352
AUC (PATU8988S_PANCREAS): 1.1933
AUC (PATU8988T_PANCREAS): 1.0752
AUC (PC3_PROSTATE): 0.9113
AUC (PC14_LUNG): 1.023
AUC (PECAPJ15_UPPER_AERODIGESTIVE_TRACT): 0.9342
AUC (PECAPJ41CLONED2_UPPER_AERODIGESTIVE_TRACT): 0.9621
AUC (PECAPJ49_UPPER_AERODIGESTIVE_TRACT): 1.067
AUC (PK1_PANCREAS): 1.024
AUC (PK45H_PANCREAS): 1.109
AUC (PK59_PANCREAS): 1.206
AUC (PLCPRF5_LIVER): 1.091
AUC (PSN1_PANCREAS): 1.221
AUC (QGP1_PANCREAS): 0.967
AUC (RCC10RGB_KIDNEY): 1.114
AUC (RCM1_LARGE_INTESTINE): 1.243
AUC (RD_SOFT_TISSUE): 1.111
AUC (RERFLCAD1_LUNG): 1.059
AUC (RERFLCAD2_LUNG): 1.0662
AUC (RERFLCAI_LUNG): 0.9008
AUC (RERFLCKJ_LUNG): 0.9276
AUC (RERFLCMS_LUNG): 1.058
AUC (RH30_SOFT_TISSUE): 1.104
AUC (RKN_SOFT_TISSUE): 0.8189
AUC (RKO_LARGE_INTESTINE): 0.9705
AUC (RL952_ENDOMETRIUM): 1.086
AUC (RMGI_OVARY): 1.148
AUC (RMUGS_OVARY): 0.9927
AUC (RT4_URINARY_TRACT): 1.661
